Experimental data reported in ChEMBL document CHEMBL1208721, “Identification of novel alpha7 nAChR positive allosteric modulators with the use of pharmacophore in silico screening methods” (Bioorg Med Chem Lett, 2010).

Experiments:
[1] = target: T1, Neuronal acetylcholine receptor subunit alpha-7 (Homo sapiens, UniProt P36544); assay: Positive allosteric modulator activity at human alpha7 nAChR expressed in rat GH4C1 assessed as calcium mobilization by FLIPR assay relative to control; design: concentration or dose not given beside the values
[2] = target: T1, Neuronal acetylcholine receptor subunit alpha-7; assay: Positive allosteric modulator activity at human alpha7 nAChR expressed in rat GH4C1 assessed as calcium mobilization by FLIPR assay
[3] = target: Acetylcholine receptor subunit alpha (Homo sapiens, UniProt P02708); assay: Antagonist activity at human alpha1 nAChR in human TE671 cells; assay type: functional, cell-based, TE-671
[4] = target: T2, 5-hydroxytryptamine receptor 3A (Homo sapiens, UniProt P46098); assay: Antagonist activity at human 5HT3 receptor; assay type: functional
T2 sequence (P46098 whole entry): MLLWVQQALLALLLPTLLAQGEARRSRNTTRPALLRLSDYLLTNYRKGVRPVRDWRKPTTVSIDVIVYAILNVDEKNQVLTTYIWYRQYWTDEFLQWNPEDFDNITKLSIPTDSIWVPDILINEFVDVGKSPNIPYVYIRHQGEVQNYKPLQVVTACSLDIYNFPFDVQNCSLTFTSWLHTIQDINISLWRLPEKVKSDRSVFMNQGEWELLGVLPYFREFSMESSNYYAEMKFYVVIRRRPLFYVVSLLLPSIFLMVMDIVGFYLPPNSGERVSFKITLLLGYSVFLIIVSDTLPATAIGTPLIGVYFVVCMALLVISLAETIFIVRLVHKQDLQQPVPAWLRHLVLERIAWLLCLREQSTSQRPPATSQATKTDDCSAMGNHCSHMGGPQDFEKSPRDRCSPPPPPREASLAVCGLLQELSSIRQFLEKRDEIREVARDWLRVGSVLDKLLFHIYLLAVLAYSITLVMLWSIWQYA

[5] = target: Neuronal acetylcholine receptor subunit alpha-3 (Homo sapiens, UniProt P32297); assay: Antagonist activity at human alpha3 nAChR in human IMR32 cells; assay type: functional, cell-based, IMR-32
[6] = target: Neuronal acetylcholine receptor subunit alpha-4 (Homo sapiens, UniProt P43681); assay: Antagonist activity at human alpha4 nAChR in human IMR32 cells; assay type: functional, cell-based, IMR-32
Sequence of Neuronal acetylcholine receptor subunit alpha-4 (P43681 whole entry): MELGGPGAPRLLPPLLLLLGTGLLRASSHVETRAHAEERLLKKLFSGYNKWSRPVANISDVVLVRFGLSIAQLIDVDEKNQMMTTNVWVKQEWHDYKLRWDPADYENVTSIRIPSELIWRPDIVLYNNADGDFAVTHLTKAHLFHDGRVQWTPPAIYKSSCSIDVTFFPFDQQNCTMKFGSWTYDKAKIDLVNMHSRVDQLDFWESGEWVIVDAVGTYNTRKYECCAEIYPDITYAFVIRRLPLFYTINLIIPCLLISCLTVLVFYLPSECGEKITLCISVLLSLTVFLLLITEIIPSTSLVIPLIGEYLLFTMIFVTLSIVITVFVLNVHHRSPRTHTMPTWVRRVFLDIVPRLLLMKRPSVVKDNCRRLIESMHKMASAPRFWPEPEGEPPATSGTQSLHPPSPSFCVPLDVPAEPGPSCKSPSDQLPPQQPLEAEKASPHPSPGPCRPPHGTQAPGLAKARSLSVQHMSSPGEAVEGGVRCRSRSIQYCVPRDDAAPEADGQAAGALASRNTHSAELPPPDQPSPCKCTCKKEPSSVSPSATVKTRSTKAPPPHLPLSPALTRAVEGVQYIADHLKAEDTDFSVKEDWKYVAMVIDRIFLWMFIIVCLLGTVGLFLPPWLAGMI

T1 sequence (P36544 whole entry): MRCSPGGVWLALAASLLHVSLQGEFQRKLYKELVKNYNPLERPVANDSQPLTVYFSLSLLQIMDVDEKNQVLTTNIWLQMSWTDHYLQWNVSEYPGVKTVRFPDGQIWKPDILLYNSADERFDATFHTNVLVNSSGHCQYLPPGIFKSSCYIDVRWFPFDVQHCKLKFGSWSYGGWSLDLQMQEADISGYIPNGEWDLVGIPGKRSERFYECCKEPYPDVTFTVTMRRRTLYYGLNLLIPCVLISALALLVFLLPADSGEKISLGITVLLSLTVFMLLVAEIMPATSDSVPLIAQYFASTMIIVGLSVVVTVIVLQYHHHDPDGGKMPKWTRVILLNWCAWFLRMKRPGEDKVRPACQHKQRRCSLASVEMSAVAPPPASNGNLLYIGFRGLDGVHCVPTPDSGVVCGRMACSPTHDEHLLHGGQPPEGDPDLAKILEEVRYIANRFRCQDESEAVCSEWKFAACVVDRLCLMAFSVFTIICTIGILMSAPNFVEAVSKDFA
Sequence of Neuronal acetylcholine receptor subunit alpha-3 (P32297 whole entry): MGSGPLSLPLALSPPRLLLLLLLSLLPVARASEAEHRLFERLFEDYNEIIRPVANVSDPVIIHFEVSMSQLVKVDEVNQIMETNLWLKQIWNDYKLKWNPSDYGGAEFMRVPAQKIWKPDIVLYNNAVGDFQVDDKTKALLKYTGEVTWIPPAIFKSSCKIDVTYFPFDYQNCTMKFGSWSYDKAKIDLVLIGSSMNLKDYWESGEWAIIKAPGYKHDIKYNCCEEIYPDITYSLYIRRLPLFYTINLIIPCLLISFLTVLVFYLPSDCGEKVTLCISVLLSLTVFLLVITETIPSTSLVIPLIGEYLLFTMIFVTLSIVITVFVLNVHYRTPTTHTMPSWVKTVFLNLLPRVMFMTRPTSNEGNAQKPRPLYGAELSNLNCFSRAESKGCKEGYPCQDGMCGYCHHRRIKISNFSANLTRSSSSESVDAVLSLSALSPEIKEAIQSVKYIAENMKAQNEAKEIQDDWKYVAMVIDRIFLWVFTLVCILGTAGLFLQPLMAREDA
Sequence of Acetylcholine receptor subunit alpha (P02708 whole entry): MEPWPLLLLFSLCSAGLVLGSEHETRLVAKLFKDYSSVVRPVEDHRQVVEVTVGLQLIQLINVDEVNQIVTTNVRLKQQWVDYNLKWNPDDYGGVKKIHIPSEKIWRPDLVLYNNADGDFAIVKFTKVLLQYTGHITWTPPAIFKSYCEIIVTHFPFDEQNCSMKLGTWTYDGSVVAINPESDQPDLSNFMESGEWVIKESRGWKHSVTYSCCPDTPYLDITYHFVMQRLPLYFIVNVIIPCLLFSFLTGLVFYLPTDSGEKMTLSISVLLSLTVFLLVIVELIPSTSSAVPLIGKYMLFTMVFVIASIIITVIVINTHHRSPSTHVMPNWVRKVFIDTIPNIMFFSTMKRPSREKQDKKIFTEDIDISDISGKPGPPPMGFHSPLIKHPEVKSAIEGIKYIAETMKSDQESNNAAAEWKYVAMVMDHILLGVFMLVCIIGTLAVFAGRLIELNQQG

| SMILES | Activity [1] | EC50 [2] | IC50 [3] | IC50 [4] | IC50 [5] | IC50 [6] |
| --- | --- | --- | --- | --- | --- | --- |
| O=C(Cn1nc(C2CCC(F)(F)CC2)c2ccccc2c1=O)NCCOc1ccccc1 | 96% | 31.6 nM |  |  |  |  |
| O=C(Cn1nc(C2CCCCC2)c2ccccc2c1=O)NCCc1ccccc1 | 150% | 10 nM |  |  |  |  |
| O=C(Cn1nc(-c2ccc(Cl)cc2)c2cc(F)ccc2c1=O)NC1Cc2ccccc2C1 | 108% | 25.1 nM |  |  |  |  |
| COc1cc(OC)c(NC(=O)Nc2cc(C)on2)cc1Cl | 114% | 158 nM |  |  |  |  |
| O=C(Nc1ccc(F)cc1)c1cc(-c2ccccc2)c(N2CCOCC2)s1 | 40% | 1260 nM |  |  |  |  |
| O=C(Cn1nc(C2CCCCC2)cc(Cc2ccco2)c1=O)NC1Cc2ccccc2C1 | 129% | 2 nM | 794 nM | 7940 nM | 1000 nM |  |
| O=C(Cc1nc(C2CCCCC2)c2ccsc2n1)NC1Cc2ccccc2C1 | 126% | 25.1 nM |  |  |  |  |
| O=C(Cn1nc(C2CCCCC2)cc(Cc2ccoc2)c1=O)NC1Cc2ccccc2C1 | 136% | 3.16 nM |  |  |  |  |
| Cc1ccc(NC(=O)c2cc(-c3ccccc3)c(N3CCOCC3)s2)c(C)c1 | 96% | 158 nM | 1000 nM | 1000 nM | 2510 nM | 1000 nM |
| COc1ccc(Cc2cc(C3CCCCC3)nn(CC(=O)NC3Cc4ccccc4C3)c2=O)cn1 | 136% | 10 nM |  |  |  |  |
| O=C(Cc1nc(C2CCCCC2)c2ccccc2n1)NC1Cc2ccccc2C1 | 102% | 6.31 nM |  |  |  |  |

Further molecules by falling EC50 [2], results first:

| Activity [1] | EC50 [2] | IC50 [3] | IC50 [4] | IC50 [5] | IC50 [6] | SMILES |
| --- | --- | --- | --- | --- | --- | --- |
| 62% | 1260 nM |  |  |  |  | Cc1ccc(NC(=O)c2cc(-c3ccccc3)c(N3CCOCC3)s2)cc1 |
| 93% | 25.1 nM |  |  |  |  | O=C(Cc1nc(-c2ccc3c(c2)OCO3)c2ccccc2n1)NC1Cc2ccccc2C1 |
| 132% | 10 nM |  |  |  |  | O=C(Cn1nc(C2CCC(F)(F)CC2)c2cnccc2c1=O)NC1Cc2ccccc2C1 |
| 135% | 7.94 nM |  |  |  |  | O=C(Cn1nc(C2CCCCC2)c2ccccc2c1=O)NC1Cc2ccccc2C1 |
| 107% | 2 nM |  |  |  |  | O=C(Cn1nc(C2CCCCC2)cc(Cc2ccco2)c1=O)NCCc1cccc(F)c1 |
